Assay type in all cases: cell-based
Data set [1] can be described thus: LC50 on immune cells (cytotoxic effect, cell viability). As for the experimental part: The mouse immune cells are obtained from C57BL6 mouse bone marrow. The human immune cells were purified from the whole blood of healthy donors (blood bank, IMSS, Cuernavaca, Mexico).
(§1) The peptides are incubated at 37° C., 5% CO2 in the presence of 500,000 immune and non-immune cells in RPMI medium at varied concentrations and at varied times. Peptide-free cells are used as the negative control and cells incubated for 5 min at 50° C. or in the presence of DMSO (30%) are used as the positive control. After incubation, the cells are washed then labelled with propidium iodide so as to measure the cell viability. The cell viability is analysed by counting or with flow cytometry in the presence of antibodies coupled with fluorochromes corresponding to characteristic markers of each cell population. The LC50 is then calculated as being the concentration of DA2N and DA2NEQ peptides inducing the death of 50% of each one of the immune cell populations.
(§2) Cytometry data processing is carried out with FlowJo software.

Data set [2] relates to non-immune cells (epithelial cells). The experiment in a line: Survival of non-immune cells. The note with it: doses of the micromolar order; mouse and human epithelial cells. As to the method: The following non-immune cells were extracted after sacrificing C57BL6 mice or in a surgical context: epithelial cells, adipocytes, hepatocytes.
as §1, §2

A short description of data set [3]: LC50 on red blood cells. The conditions noted are these: Human red blood cells. As to the method:
The human red blood cells were purified from the whole blood of healthy donors (blood bank, IMSS, Cuernavaca, Mexico).
The peptides are incubated at 37° C., 5% CO2 in the presence of 500,000 red blood cells in RPMI medium at varied concentrations and at varied times. Peptide-free cells are used as the negative control and cells incubated for 5 min at 50° C. or in the presence of DMSO (30%) are used as the positive control. The LC50 is then calculated as being the concentration of DA2N and DA2NEQ peptides inducing the death of 50% of the red blood cells.

Data set [4] has as its system Human red blood cells. In words: Haemolytic activity. The conditions noted are these: 10 µM and 50 µM, 1h at 37° C. As to the method: (§3) Mouse or donor blood is washed three times in 10 volumes of PBS at 4° C. by centrifugation at 800 g for 10 minutes. The blood sediment is finally diluted to 4% (v/v) in PBS buffer. The test was carried out as follows: either 10 µM, or 50 µM of peptide was added to 100 µL of red blood cell suspension.
(§4) After 1h of incubation at 37° C. followed by centrifugation (800 g, 15 min), the absorbance of the supernatant was measured at 550 nm.
(§5) The negative control for this test (0% haemolysis) contains 5 µL of PBS buffer instead of the solution containing the peptide and the positive control (100% haemolysis) contains 5 µL of 1% Triton X100 instead of the solution containing the peptide.

Data set [5] deals with Mouse red blood cells. The experiment in a line: Haemolytic activity. The conditions noted are these: results not shown. As to the method:
as §3, §4, §5
The haemolytic activity of the antimicrobial peptides was measured as per the protocol described in part 3.1 of Example 3.

Data set [6] can be described thus: Cytotoxic effects on immune cells obtained from mouse bone marrow. The conditions noted are these: mouse immune cells originating from bone marrow, read-out: LC50. As to the method:
The mouse immune cells are obtained from C57BL/6 or Balb/c mouse bone marrow. The peptides are incubated at 37° C., 5% CO2 in the presence of 500,000 immune cells in RPMI medium at varied concentrations for 2 hours. Peptide-free cells are used as the negative control and cells in the presence of DMSO (30%) are used as the positive control. After incubation, the cells are washed then labelled with Trypan blue so as to measure the cell viability by microscope counting. The LC50 is then calculated as being the concentration of DA2N, K12A and DANa peptides inducing the death of 50% of the immune cells.

The mark [7] stands for this setting: C57BL6, Neutrophils, Mouse cells.
Setting [8] is: C57BL6, T lymphocytes, Mouse cells.

Ends that are not written are not given here.

Consider 2 substances from US20230192772A1, “ANTIMICROBIAL PEPTIDES AND USES THEREOF” (SORBONNE UNIVERSITE, priority 2016, published 2023).

Regarding ALWKTLLKKVGKVAGKAVLNAVTNMANQN-OH [DA2N], the CC50 in data set [1] (C57BL6, Monocytes, Mouse cells) came out at 5 µM; in data set [1] (C57BL6, NK cells, Mouse cells), 3 µM; in data set [1] (setting [7]) it was 6 µM; in data set [1] (setting [8]), 3 µM; in data set [1] (Monocytes, Human cells), 4 µM; in data set [1] (NK cells, Human cells), 4 µM. For the same substance, the CC50 in data set [1] (Neutrophils, Human cells) amounted to 7.5 µM; in data set [1] (T lymphocytes, Human cells), 4 µM; in data set [3] it was 750 µM. Moreover, in data set [2], the “death of non-immune cells” value is given as “induce the death of immune cells but not of non-immune cells”. The “haemolysis of human red blood cells” value in data set [4] is recorded as “do not induce the haemolysis”. For the same substance, in data set [5], the “haemolysis of mouse red blood cells” value is “do not induce the haemolysis”. Moreover, the CC50 at 2 hours in data set [6] stood at 5 µM.
“ALWKTLLKKVGKVAGKAVLNAVTNMANQNEQ [DA2NEQ, ALWKTLLKKVGKVAGKAVLNAVTNMANQNEQOH]”: the CC50 turned out to be 7 µM in data set [1] (C57BL6, Monocytes, Mouse cells); 4 µM in data set [1] (C57BL6, NK cells, Mouse cells); 7.5 µM in data set [1] (setting [7]); 5 µM in data set [1] (setting [8]); 4 µM in data set [1] (Monocytes, Human cells); 4 µM in data set [1] (NK cells, Human cells). Further, the CC50 in data set [1] (Neutrophils, Human cells) amounted to 7 µM; in data set [1] (T lymphocytes, Human cells), 5 µM; in data set [3], 750 µM. Moreover, the “death of non-immune cells” value in data set [2] was “induce the death of immune cells but not of non-immune cells”. For the same substance, in data set [4], the “haemolysis of human red blood cells” value is listed as “do not induce the haemolysis”. Also, in data set [5], the “haemolysis of mouse red blood cells” value is recorded as “do not induce the haemolysis”.
